# According to patent US10736856B2, “Use of xibornol as active agent in the treatment of viral infections” (priority 2016, dated 2020):
# Entries after “also recorded” stand apart in the source; their conditions may differ.
# Experiments:
# Assay in all cases: Xibornol virucidal efficacy test (UNI EN 14476 adapted), residual viral titer by Karber micromethod
# Details in all cases: for Average viral titre after 15 minutes contact / Logarithmic reduction: 15 minutes contact
# [1] = system: Human Adenovirus 5; format: cell-based
# Description: (§1) The experimentation was conducted by using the following strains from ATCC: • VR-5 Human Adenovirus 5; Strain: Adenoid 75, • VR-286 Picornaviridae, Rhinovirus, Human Rhinovirus A, • VR-740 Human Coronavirus.
# (§2) The cell lines used for the isolation of the target viruses were: • ATCC CCL-2 HeLa—Cervical Adenocarcinoma—Human (Homo sapiens), briefly ‘HeLa’, for the study of Human Adenovirus 5 and Human Rhinovirus, and • ATCC CCL-171 MRC-5-Lung Fibroblast-Human (Homo Sapiens), briefly ‘MRC-5’ for the study of Human Coronavirus.
# (§3) The tests to assess the toxicity of xibornol were performed as per UNI EN 14476 protocol, which refers to the “virucidal activity of chemical disinfectants or antiseptics for tools, surfaces or hands forming a physically stable homogeneous mixture when diluted with hard water or water”, suitably adapted, also considering that xibornol is soluble in alcohol (ethanol) that is already well known to have toxic effects for cell cultures.
# (§4) Therefore, it was decided to use preparations in which xibornol was diluted with different solvents, in order also to be able to test both the solution and the suspension condition. After several tests, a reliable method was set up, by using Labrasol®, namely caprylocaproyl polyoxyl-8 glyceride, as solvent and formulating xibornol in solution.
# (§5) For each of the 3 viruses, 3 replicates were performed with 10 mL mixtures consisting of: • 1 mL Labrasol® (“clean” tests) or 1 mL of fetal bovine serum (“dirt” tests); • 8 mL xibornol for each dilution (8%, 3%, 0.5%) at the non-toxic concentration for the cell cultures: 10^−3, 10^−2 and 10^−1 respectively, and corresponding to 0.008 g/100 mL, 0.030 g/100 mL and […]. Dilutions made in Labrasol®; • 1 mL of virus with known titer.
# (§6) The tests carried out in “dirt” situations, specified by the standard protocol, were intended to create a more “difficult” environment for the performance of the virucidal activity by xibornol, hindered in its activity by the presence of further polluting components, as actually happens in the application environment of the active ingredient, allowing recreating and simulating as closely as possible the conditions of use.
# (§7) For tests performed in “dirt” condition, the erythrocytes were not mixed with the bovine fetal serum, as indicated by the European standard, because of the interfering effect they have towards the cell lines used in the tests, which would have led to difficulties in interpreting the results.
# (§8) Moreover, for each replicate, a negative control was used, consisting of: • 1 mL virus; • 9 mL Labrasol® (“clean” tests) or 8 mL Labrasol®+1 mL fetal bovine serum (“dirt” tests).
# (§9) Contact time: 15 minutes.
# (§10) After this interval, the mixtures were analysed to assess the residual viral titer by titration, Karber micromethod.
# (§11) The data obtained were analysed with the Excel program for the evaluation of averages and total logarithmic standard deviations.
# [2] = system: Human Coronavirus; format: cell-based, Human Coronavirus (ATCC VR-740), titrated on MRC-5
# Description: as §1, §2, §3, §4, §5, §6, §7, §8, §9, §10, §11
# [3] = system: Human Rhinovirus; format: cell-based, Human Rhinovirus A (ATCC VR-286), titrated on HeLa
# Description: as §1, §2, §3, §4, §5, §6, §7, §8, §9, §10, §11
# [4] = after 15 minutes of contact, all concentrations tested (0.008, 0.030, 0.05 g/100 mL)
# [5] = extrapolated from trend curve to xibornol 3 g per 100 mL of solution
# [6] = “clean” test, working concentration 0.008 g/100 mL (8% solution, dilution 10^−3)
# [7] = “clean” test, working concentration 0.03 g/100 mL (3% solution, dilution 10^−2)
# [8] = “clean” test, working concentration 0.05 g/100 mL (0.5% solution, dilution 10^−1)
# [9] = “dirt” test (fetal bovine serum), working concentration 0.008 g/100 mL (8% solution, dilution 10^−3)
# [10] = “dirt” test (fetal bovine serum), working concentration 0.03 g/100 mL (3% solution, dilution 10^−2)
# [11] = “dirt” test (fetal bovine serum), working concentration 0.05 g/100 mL (0.5% solution, dilution 10^−1)
structure (smiles),measurement,setting,value
"Cc1cc(O)c(C2CC3CCC2(C)C3(C)C)cc1C (centres unmarked) [xibornol, 4,5-dimethyl-2-[1,7,7-trimethylbicyclo[2.2.1]heptan-2-yl]phenol]",killing extent (reduction of viral load),[1]; [4],greater than 2 orders of magnitude
same,"final average titer after treatment, extrapolated",[1]; [5],very close to zero
same,"reduction of the viral load titer (expressed as logarithm), extrapolated",[1]; [5],at least of two orders of magnitude; also recorded: almost total reduction
same,Average viral titre after 15 minutes contact,[1]; [6],2 ± 0.8 Log DCP50/mL
same,Logarithmic reduction,[1]; [6],2.4
same,Average viral titre after 15 minutes contact,[1]; [7],1.3 ± 1 Log DCP50/mL
same,Logarithmic reduction,[1]; [7],3.1
same,Average viral titre after 15 minutes contact,[1]; [8],1.1 ± 0.1 Log DCP50/mL
same,Logarithmic reduction,[1]; [8],3.3
same,Average viral titre after 15 minutes contact,[1]; [9],1.1 ± 0.6 Log DCP50/mL
same,Logarithmic reduction,[1]; [9],2
same,Average viral titre after 15 minutes contact,[1]; [10],1.2 ± 0.6 Log DCP50/mL
same,Logarithmic reduction,[1]; [10],1.9
same,Average viral titre after 15 minutes contact,[1]; [11],0.8 ± 0.5 Log DCP50/mL
same,Logarithmic reduction,[1]; [11],2.3
same,"reduction of the viral titer, average",[1]; “dirt” tests,more than two orders of magnitude
same,killing extent (reduction of viral load),[2]; [4],greater than 2 orders of magnitude
same,killing peak (reduction of viral load),"[2]; after 15 minutes of contact, highest value reached",3.8 orders of magnitude
same,"final average titer after treatment, extrapolated",[2]; [5],very close to zero
same,"reduction of the viral load titer (expressed as logarithm), extrapolated",[2]; [5],at least of two orders of magnitude; also recorded: almost total reduction
same,Average viral titre after 15 minutes contact,[2]; [6],1.8 ± 0.7 Log DCP50/mL
same,Logarithmic reduction,[2]; [6],3.4
same,Average viral titre after 15 minutes contact,[2]; [7],1.4 ± 0 Log DCP50/mL
same,Logarithmic reduction,[2]; [7],3.8
same,Average viral titre after 15 minutes contact,[2]; [8],1.6 ± 0.3 Log DCP50/mL
same,Logarithmic reduction,[2]; [8],3.6
same,Average viral titre after 15 minutes contact,[2]; [9],1.7 ± 0.7 Log DCP50/mL
same,Logarithmic reduction,[2]; [9],2.3
same,Average viral titre after 15 minutes contact,[2]; [10],1.5 ± 0.6 Log DCP50/mL
same,Logarithmic reduction,[2]; [10],2.6
same,Average viral titre after 15 minutes contact,[2]; [11],1.6 ± 0.4 Log DCP50/mL
same,Logarithmic reduction,[2]; [11],2.5
same,"reduction of the viral titer, average",[2]; “dirt” tests,more than two orders of magnitude
same,killing extent (reduction of viral load),[3]; [4],greater than 2 orders of magnitude
same,"final average titer after treatment, extrapolated",[3]; [5],very close to zero
same,"reduction of the viral load titer (expressed as logarithm), extrapolated",[3]; [5],at least of two orders of magnitude; also recorded: almost total reduction
same,Average viral titre after 15 minutes contact,[3]; [6],2 ± 0.1 Log DCP50/mL
same,Logarithmic reduction,[3]; [6],2.2
same,Average viral titre after 15 minutes contact,[3]; [7],1.3 ± 0.5 Log DCP50/mL
same,Logarithmic reduction,[3]; [7],2.9
same,Average viral titre after 15 minutes contact,[3]; [8],1.2 ± 0.4 Log DCP50/mL
same,Logarithmic reduction,[3]; [8],3
same,Average viral titre after 15 minutes contact,[3]; [9],1 ± 0.1 Log DCP50/mL
same,Logarithmic reduction,[3]; [9],2.8
same,Average viral titre after 15 minutes contact,[3]; [10],0.7 ± 0.1 Log DCP50/mL
same,Logarithmic reduction,[3]; [10],3.1
same,Average viral titre after 15 minutes contact,[3]; [11],0.8 ± 0.1 Log DCP50/mL
same,Logarithmic reduction,[3]; [11],3
same,"reduction of the viral titer, average",[3]; “dirt” tests,more than two orders of magnitude
same,"reduction of the viral titer, highest reached",[3]; “dirt” tests,≥ 3 orders of magnitude
